Measured values as given in patent US9492499B2, “Peptides having anti-inflammatory properties” (Riptide Bioscience, Inc., priority 2014, dated 2016).
Entries after “also recorded” stand apart in the source; their conditions may differ. No end group written: not given here.

What was measured:
[1] = Tumor growth, MCF-7 non-metastatic breast cancer model in athymic nude mice; type: in vivo, mouse
Description: The polypeptides of the invention were also tested for their effect on tumor growth in a mouse model of non-metastatic breast cancer. MCF-7 human non-metastatic breast cancer cells were cultured at 37° C., 5% CO2 in normal growth media. Cells were harvested at 80% to 90% confluence. Immune compromised athymic nude mice (J:NU) were divided into 2 groups (9 animals per group). All mice were injected with ˜4.5×10^6 MCF-7 cells which had been stained with VIVO Tracker 680 and suspended in 200 μl of PBS/Matrigel mixture. Cells were injected subcutaneously on the dorsal surface of treated animals using a 22 gauge needle fitted with a 500 μl syringe.
Animals were designated vehicle and peptide treated. The peptide treated animals were treated with the RP-397 polypeptide (SEQ ID NO: 194). Freshly prepared RP-397 peptide was dissolved in sterile saline at a concentration of 100 μM and was used to treat the animals in the peptide group. Vehicle treated animals were injected with saline buffer alone. All treatments were injected into the tumor mass two times weekly for 5 weeks using a 27½ gauge needle fitted with a 1 ml syringe. Animal weights and tumor volumes were measured 3 times weekly and the fluorescence labeling was followed by VIVO Tracker 680 and IVIS Imaging.

NF-kB = NF-kB activity in 3T3-L1 preadipocyte Nfkb-RE/GFP reporter cells; type: cell-based; conditions: 0.01 μM peptide, lipopolysaccharide 20 ng/ml, GFP fluorescence
Description: NF-kB activity was monitored using the a 3T3-L1 preadipocyte cell line stably transformed with a Nfkb-RE/GFP construct, as described in Shen et al. (2013), “Adipocyte reporter assays: Application for identification of anti-inflammatory and antioxidant properties of mangosteen xanthones,” Mol. Nutr. Food Res. 00:1-9, the entire contents of which are incorporated herein by reference. NF-kB expressing adipocyte reporter cells were plated in DMEM in wells of a 24-well plate, at a seeding density of 5×10^4. On the second and third days post-plating, test peptides were individually added to the wells to a final concentration of 0.01 μM. The test peptides included RP-398 (SEQ ID NO: 155), and RP-185 (SEQ ID NO: 123). On day 4 post-plating, lipopolysaccharide was added to the medium to a final concentration of 20 ng/ml. Finally, on day 5 post-plating, the cells were harvested and a fluorescence assay performed to detect GFP expression levels.

PD-L2 = PD-L2 staining of tumors in transgenic p53/KRAS mice; type: in vivo, mouse; conditions: 10 mg/kg daily subcu for one week, vs vehicle
Description: (§1) In one experiment, tumors in transgenic p53/KRAS mice were allowed to grow to approximately […] in volume, and the animals were then treated daily subcu for one week with either vehicle only, or 10 mg/kg RP-182, following which the animals were sacrificed and the tumors resected, formalin-fixed, and stained with antibodies to PD-1 (FIG. 19), PD-L1 and PD-L2 (FIG. 20).

M1-polarized macrophages = test: Viable cell count of M1-polarized bone marrow macrophages; type: cell-based, mouse; conditions: 100 nM, 72 hours
Description: (§2) Primary bone marrow cells were collected from male C57BL/6J (The Jackson Laboratory, Bar Harbor, Me.). Mouse bone marrow macrophages were differentiated in vitro from the primary bone marrow cells by culturing in Dulbecco's minimal essential medium (DMEM) with 10% FBS and 30 ng/ml murine M-CSF (colony stimulating factor) for 6 days. At day 7, macrophages were plated into 12-well plates and cultured in DMEM (10% FBS) with (i) IL-4 peptide (20 ng/mL), (ii) INF-γ (10 ng/mL), or (iii) neither IL-4 nor INF-γ for 24 hours. After 24 hours, the media was replaced with pure DMEM and the cells were cultured for an additional 48 hours. The resulting macrophages were (i) M2-polarized, (ii) M1-polarized, or (iii) undifferentiated, respectively.
(§3) A macrophage sample containing approximately 70,000 […] macrophages per ml was incubated for 72 hours with 100 nM RP-182 (SEQ ID NO: 121). […] Thus, the RP-182 had little effect on the viability of M1 macrophages.

[2] = system: undifferentiated macrophages; test: Viable cell count of undifferentiated bone marrow macrophages; type: cell-based, mouse; conditions: 100 nM, 72 hours; sample approximately 70,000 per ml
Description: as §2, §3

PD-L1 = PD-L1 staining of tumors in transgenic p53/KRAS mice; type: in vivo, mouse; conditions: 10 mg/kg daily subcu for one week, vs vehicle
Description: as §1

[3] = system: human triple-negative breast cancer cells (MDA-MB-231); test: Tumor volume, MDA-MB-231 triple-negative breast cancer in nude mice, combination with Gemcitabine; type: in vivo, mouse; conditions: Gemcitabine+RP-182 cohort, from day 32
Description: To test this theory, cohorts of immunocompromised (“nude”) mice were injected with ˜5×10^6 human triple-negative breast cancer cells (MDA-MB-231) under the upper left teat. Following this administration, one cohort received only vehicle; two of the cohorts received the chemotherapeutic agent Gemcitabine, at a q4d dose of 40 mg/kg of body weight. One of these cohorts also received RP-182 (SEQ ID NO: 121) at a daily dose of 5 mg/kg body weight; and a fourth cohort received only RP-182 at a daily dose of 5 mg/kg body weight. Beginning on day 32 of the study, in the Gemcitabine+RP-182 cohort, concentrations of RP-182 were increased to 20 mg/kg body weight. Tumor volume was assessed at various time points following initial cell administration (FIG. 21). After 50 days, the mice were sacrificed.

PD-1 = PD-1 staining of tumors in transgenic p53/KRAS mice; type: in vivo, mouse; conditions: 10 mg/kg daily subcu for one week, vs vehicle
Description: as §1

M2-polarized macrophages = test: Viable cell count of M2-polarized bone marrow macrophages; type: cell-based, mouse; conditions: 100 nM, 72 hours
Description: as §2, §3

## FAKKFAKKF [RP-397, FAKKFAKKF]
[1]; after treatment
  Body Weight After: 30.1 g
[1]; before treatment
  Body Weight Before: 25.1 g

## FAKKFAKKFK [RP-398]
NF-kB
  NF-kB expression reduced relative to control cells: approximately 58%

## FFKKFFKKFK [RP-185]
NF-kB
  NF-kB expression reduced relative to control cells: approximately 58%

## KFRKAFKRFF [RP-182]
PD-L2
  PD-L2 expression in tumor: significantly downregulated; also recorded: reduced
M1-polarized macrophages
  viable cell count, M1-polarized macrophages: 68,000 cells per ml
[2]
  viable cell count, undifferentiated macrophages: 68,000 cells per ml
PD-L1
  PD-L1 expression in tumor: significantly downregulated; also recorded: reduced
[3]
  increase in tumor volume after RP-182 raised to 20 mg/kg: essentially halted
PD-1
  PD-1 expression in tumor: significantly downregulated; also recorded: reduced
M2-polarized macrophages
  viable cell count, M2-polarized macrophages: 20,000 cells per ml
